Measured values reported in patent publication US20220332710A1, “SOLID FORMS OF A GLYT1 INHIBITOR” (Boehringer Ingelheim International GmbH, priority 2019, published 2022).

Assay: Water sorption isotherm (dynamic vapor sorption)
Format: physicochemical
Settings: 25° C., maintained at 90% relative humidity for 6 hours under humid nitrogen purge
Method: FIG. 11 is a water sorption isotherm showing the water-uptake of Form II of Coumpound 1 and amorphous Coumpound 1 when stored at 25° C. at different relative humidities.
As discussed above, the invention relates to crystalline forms of Coumpound 1 described herein as Form I, Form II, or Form III; and mixtures of at least two of Form I, Form II, or Form III (“the crystalline compounds of the invention”). WO2013017657 makes no mention of any crystalline form of Compound, any method for preparing a crystalline form of Coumpound 1, or any of the properties of the crystalline forms of Coumpound 1 described herein. The compounds of the invention have advantageous properties (e.g., improved stability and reproducibility) as compared to the amorphous form of Coumpound 1 described in Example 1 herein and WO2013017657. Improvements over the amorphous form include, for example, lower hygroscopicity and decreased tendency to convert to a different solid form. For example, the water-uptake of amorphous Coumpound 1 at 25° C. is 1.4% when maintained at 90% relative humidity for 6 hours under humid nitrogen purge. […]
Water sorption isotherms are determined using a dynamic vapor sorption system (Advantage, DVS, London, UK). […]

SMILES | water-uptake
CC(Oc1ccc(S(C)(=O)=O)cc1C(=O)N1CC2C[C@]2(c2cc(C(F)(F)F)on2)C1)C(F)(F)F (some centres unmarked) [Form II of Coumpound 1] | about 0.04%
CC(Oc1ccc(S(C)(=O)=O)cc1C(=O)N1CC2C[C@]2(c2cc(C(F)(F)F)on2)C1)C(F)(F)F (some centres unmarked) [amorphous Coumpound 1] | 1.4%
